Source: publication PMC8780078, “Long‐acting and extended‐release implant and nanoformulations with a synergistic antiretroviral two‐drug combination controls HIV‐1 infection in a humanized mouse model” (Bioengineering & Translational Medicine, 2021)

Legend:
HERG ion channel = system: HERG ion channel; set-up: method as in PMID 28167742; details: cited from earlier work
[1] = Pharmacokinetics of drug release from subdermal implants in Hu‐PBL mice (serum, HPLC); assay type: in vivo; details: end of study sera (Day 49 nanoformulations, Day 56 implants) vs EC90 in HIV cell culture
Procedure: Hu‐mice were anesthetized by i.p. injection of ketamine (80 mg/kg) and xylazine (12 mg/kg) in PBS (10 ml/kg) based on individual mouse body weight. After anesthetizing, approximately 1–2 cm square of the dorsal skin was shaved using an electric hair clipper, the area was cleaned with ethanol and disinfected with Betadine. Using a sterile disposable surgical blade, an incision of 4–5 mm was made through the skin. Gently, 2 cm × 3 cm subcutaneous pockets were created with forceps and implants loaded with Compound I and EFdA were co‐inserted at the same site. The opening was sutured using absorbable sutures followed by subcutaneous administration of 0.05 mg/kg buprenorphine. The animals were kept warm using the temperature‐controlled heating pads until they regained consciousness. Toxicity was evaluated by clinical observations, cage‐side observations (twice daily), and body weight (at least weekly). […]
The data were plotted as a concentration‐time curve using PRISM 9.0 (GraphPad Software Inc., La Jolla, CA). […] was calculated using Graph pad prism where EC50 of each compound was used along with Hill slope of 1. The predicted area under the curve (AUC) for drug concentration in blood serum against time (AUC predicted) was calculated based on the linear trapezoid method.[29] AUC was also calculated for PVLs and CD4+ T‐cells in infection experiments. […]

HIV‐1 [2] = details: cited from earlier work
HIV‐1 [3] = assay: Antiviral potency in cellular assays / HIV cell culture; assay type: cell-based; details: Human immunodeficiency virus 1, in Discussion

SMILES	inhibition of the HERG ion channel (HERG ion channel)	serum concentration fold above EC90 [1]	synergy of Compound I with EFdA (HIV‐1 [2]; cell culture)	activity against wild‐type HIV‐1 strains and drug resistant variants (HIV‐1 [2]; wild‐type, Y181C and K103N)	EC90 (HIV‐1 [3]) [ng/mL]	EC90 (HIV‐1 [3]; from EC50 with Hill slope of 1) [nM]
N#Cc1ccc2c(Oc3ccc(F)cc3OCCn3ccc(=O)[nH]c3=O)cc(F)cc2c1 [Compound I]	no inhibition	approximately 100 fold	potent synergy	active in the nanomolar range	10	25.2
C#C[C@]1(CO)O[C@@H](n2cnc3c(N)nc(F)nc32)C[C@@H]1O [EFdA, 4′‐ethynyl‐2‐fluoro‐2′‐deoxyadenosine, reference compound]	–	~1100 fold	–	–	5	17.1
